According to patent US20010047099A1, “4-aminopicolinates and their use as herbicides” (priority 2000, published 2001):

What was measured:
[1] = system: wild buckwheat (Polygonum convolvulus); test: Postemergence herbicidal activity; type: in vivo; settings: for pest or weed control at 250 ppm / pest or weed control at 125 ppm: Fallopia convolvulus, post-emergence, 336 h, Table 1, visual, after 2 weeks, read-out: Post-emergent % Control POLCO; for Post-emergent Evaluation - % control POLCO: Table 5; for pest or weed control at 125 ppm: rate 125 ppm
How it was run: (§1)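 Plants are raised from seed under greenhouse conditions until the first or second true leaf appears. They are then sprayed with test solutions at known concentrations, where 1 ppm corresponds to roughly 1 g/Ha. Two weeks later, injury is rated by eye from 0 to 100%.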

[2] = system: cocklebur (Xanthium strumarium); test: Postemergence herbicidal activity; type: in vivo; settings: Xanthium strumarium, post-emergence, 336 h, Table 1, visual, after 2 weeks, read-out: Post-emergent % Control XANST; for pest or weed control at 250 ppm: rate 250 ppm; for pest or weed control at 125 ppm: rate 125 ppm
How it was run: as §1

[3] = system: lambsquarters (Chenopodium album); test: Postemergence herbicidal activity; type: in vivo; settings: Table 5
How it was run: as §1

[4] = system: chickweed (Stellaria media); test: Postemergence herbicidal activity; type: in vivo; settings: for pest or weed control at 250 ppm / pest or weed control at 125 ppm: Stellaria media, post-emergence, 336 h, Table 1, visual, after 2 weeks, read-out: Post-emergent % Control STEME; for Post-emergent Evaluation - % control STEME: Table 5; for pest or weed control at 125 ppm: rate 125 ppm
How it was run: as §1

[5] = system: wheat (Triticum aestivum); test: Postemergence herbicidal activity, selectivity to wheat; type: in vivo; settings: Table 5, crop (wheat)
Protocol: Seeds of the desired test plant species were planted in Grace-Sierra MetroMix® 306 planting mixture, which typically has a pH of 6.0 to 6.8 and an organic matter content of about 30 percent, in plastic pots with a surface area of 64 square centimeters. When required to ensure good germination and healthy plants, a fungicide treatment and/or other chemical or physical treatment was applied. The plants were grown for 7-21 days in a greenhouse with an approximate 15 hr photoperiod which was maintained at about 23-29° C. during the day and 22-28° C. during the night. Nutrients and water were added on a regular basis and supplemental lighting was provided with overhead metal halide 1000-Watt lamps as necessary. The plants were employed for testing when they reached the first or second true leaf stage.
A weighed amount, determined by the highest rate to be tested, of each test compound was placed in a 20 mL glass vial and was dissolved in 4 mL of a 97:3 v/v (volume/volume) mixture of acetone and dimethyl sulfoxide (DMSO) to obtain concentrated stock solutions. […] The concentrated stock solutions obtained were diluted with an aqueous mixture containing acetone, water, isopropyl alcohol, DMSO, Atplus 411F crop oil concentrate, and Triton X-155 surfactant in a 48.5:39:10:1.5:1.0:0.02 v/v ratio to obtain spray solutions of known concentration. The solutions containing the highest concentration to be tested were prepared by diluting 2 mL aliquots of the stock solution with 13 mL of the mixture and lower concentrations were prepared by serial dilution of the stock solution. Approximately 1.5 mL aliquots of each solution of known concentration were sprayed evenly onto each of the test plant pots using a DeVilbiss atomizer driven by compressed air pressure of 2 to 4 psi ([…]) to obtain thorough coverage of each plant. Control plants were sprayed in the same manner with the aqueous mixture. In this test an application rate of 1 ppm results in the application of approximately 1 g/Ha.
The treated plants and control plants were placed in a greenhouse as described above and watered by sub-irrigation to prevent wash-off of the test compounds. After 2 weeks the condition of the test plants as compared with that of the untreated plants was determined visually and scored on a scale of 0 to 100 percent where 0 corresponds to no injury and 100 corresponds to complete kill.

[6] = system: morningglory (Ipomoea hederacea); test: Preemergence herbicidal activity; type: in vivo; settings: Ipomoea, 504 h, Table 6 (headed Post-emergent; text: preemergence), after 3 weeks, read-out: % Control IPOHE; for pest or weed control at 280 ppm: rate 280 ppm
How it was run: (§2)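 Test compounds in acetone/DMSO were diluted in water with 0.1% Tween 155 and sprayed onto the soil surface of freshly seeded pots (loam/sand 70:30, pH about 8.1). Plants grew in a greenhouse at about 23-29° C day under a 15 h photoperiod. Injury was scored visually after 3 weeks versus untreated plants, 0-100%.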

[7] = system: velvetleaf (Abutilon theophrasti); test: Preemergence herbicidal activity; type: in vivo; settings: Abutilon theophrasti, 504 h, Table 6 (headed Post-emergent; text: preemergence), after 3 weeks, read-out: % Control ABUTH; for pest or weed control at 280 ppm: rate 280 ppm
How it was run: as §2

[8] = system: pigweed (Amaranthus retroflexus); test: Preemergence herbicidal activity; type: in vivo; settings: Amaranthus retroflexus, 504 h, Table 6 (headed Post-emergent; text: preemergence), after 3 weeks, read-out: % Control AMARE; for pest or weed control at 280 ppm: rate 280 ppm
How it was run: as §2

[9] = system: crested wheatgrass (Agropyron cristatum) (grass crop); test: Range & Pasture Crop Testing (postemergence track sprayer); type: in vivo; settings: Table 9, rate 70 g/Ha, 3 weeks after treatment
Protocol: (§3) Rates are calculated based upon 5 doses being applied. The high rate (X), followed by serial dilutions of 1/2×, 1/4×, 1/8× and 1/16×. Compound requirements are based upon the 187 L/ha carrier volume, specifications of the delivery system (Mandel track sprayer) and generating 24 mL of technical spray material to allow for the dilutions and overage in the sprayer. [formula]
(§4) All technical materials were formulated in 97:3 (acetone:DMSO) with 0.25% X-77. The total volume of solvent is maintained at less than 7%. An overhead Mandel track sprayer calibrated to deliver 187 L/ha was used for all treatment applications (postemergence). Picloram was included as a comparison treatment.
(§5) Solutions were applied with a mechanized track-sprayer at the following settings:
(§6) Spray height: 17 inches above top of plants
(§7) This provides an application volume of 187 L/ha.
(§8) Percent weed control (burn down) was evaluated 3 weeks after treatment. Visual control on a 0-100 linear scale was used, with 0 representing no control and 100 representing total control. Burn down ratings were taken for annual and perennial weed species.

[10] = system: broadleaf dock (Rumex obtusifolia); test: as above; type: in vivo; settings: Table 9; rate 70 g/Ha; 3 weeks after treatment
Protocol: as §3, §4, §5, §6, §7, §8

[11] = system: Canada thistle (Cirsium arvense); test: as above; type: in vivo
Protocol: (§9) By applying the well-accepted probit analysis as described by J. Berkson in Journal of the […], 48, 565 (1953) and by D. Finney in “Probit Analysis” Cambridge University Press (1952), the above data can be used to calculate GR50 and GR80 values, which are defined as growth reduction factors that correspond to the effective dose of herbicide required to kill or control 50 percent or 80 percent, respectively, of a target plant.
as §3, §4, §5, §6, §7, §8

[12] = system: White Clover (Trifolium repens); test: as above; type: in vivo; settings: Table 10
Protocol: as §9, §3, §4, §5, §6, §7, §8

[13] = system: field bindweed (Convolvulus arvensis); test: as above; type: in vivo; settings: Table 10; clover pasture; postemergence
Protocol: as §9, §3, §4, §5, §6, §7, §8

| SMILES | pest or weed control at 250 ppm ([1]; rate 250 ppm) [%] | pest or weed control at 250 ppm [2] [%] | pest or weed control at 250 ppm ([4]; rate 250 ppm) [%] | melting point [°C] | pest or weed control at 125 ppm [1] [%] | pest or weed control at 125 ppm [2] [%] | pest or weed control at 125 ppm [4] [%] | pest or weed control at 280 ppm [6] [%] | pest or weed control at 280 ppm [7] [%] | pest or weed control at 280 ppm [8] [%] | also measured |
| --- | --- | --- | --- | --- | --- | --- | --- | --- | --- | --- | --- |
| Nc1cc(C(F)(F)F)nc(C(=O)O)c1Cl [Compound 46, 4-Amino-3-chloro-6-trifluoromethylpyridine-2-carboxylic acid] | 100 | 90 | 60 | 131 to 133 |  |  |  |  |  |  | Post-emergent Evaluation - % control POLCO ([1]; rate 31 ppm): 100%; Post-emergent Evaluation - % control CHEAL ([3]; rate 31 ppm): 100%; Post-emergent Evaluation - % control STEME ([4]; rate 31 ppm): 50%; Post-emergent Evaluation - % control TRZAS ([5]; rate 31 ppm): 10%; pest or weed control at 140 ppm ([6]; rate 140 ppm): 100%; pest or weed control at 140 ppm ([7]; rate 140 ppm): 95%; pest or weed control at 140 ppm ([8]; rate 140 ppm): 95% |
| CNc1cc(Cl)nc(C(=O)O)c1Cl [Compound 26, 4-N-Methylamino-3,6-dichloropyridine-2-carboxylic acid] |  |  |  | 170 to 172 | 95 | 90 | 90 |  |  |  | Post-emergent Evaluation - % control AGRCR [9]: 10%; Post-emergent Evaluation - % control RUMOB [10]: 100%; Post-emergent Evaluation - % control CIRAR ([11]; Table 9, rate 70 g/Ha, 3 weeks after treatment): 90%; pest or weed control at 560 ppm ([6]; rate 560 ppm): 100%; pest or weed control at 560 ppm ([7]; rate 560 ppm): 100%; pest or weed control at 560 ppm ([8]; rate 560 ppm): 100% |
| CCCCOC(=O)c1nc(Cl)cc(N)c1Cl [Compound 7, n-butyl 4-amino-3,6-dichloropyridine-2-carboxylate] | 100 | 100 | 100 | 78 to 79 |  |  |  | 100 | 100 | 100 | GR20 TRFRE [12]: 15.3 g/ha; GR80 CIRAR ([11]; Table 10, clover pasture, postemergence): 17.3 g/ha; GR80 CONAR [13]: 116.6 g/ha |
| COc1c(N)cc(Br)nc1C(=O)O [Compound 41, 4-Amino-6-bromo-3-methoxypyridine-2-carboxylic acid] |  |  |  |  | 100 | 80 | 90 | 85 | 90 | 40 | Post-emergent Evaluation - % control POLCO ([1]; rate 250 ppm): 100%; Post-emergent Evaluation - % control CHEAL ([3]; rate 250 ppm): 90%; Post-emergent Evaluation - % control STEME ([4]; rate 250 ppm): 20%; Post-emergent Evaluation - % control TRZAS ([5]; rate 250 ppm): 10% |
